The nature of this series: Steady-state plasma LPV pharmacokinetics with and without African potato. Format: in vivo, human. The following applies: for CLF (apparent clearance), arithmetic mean (SD): LPV; for AUC: AUCτ; for concentration at 12 h: Ctrough.
[1] abbreviates: plasma LPV, steady state, day 21, LPV/r plus African potato, n = 16.
The mark [2] stands for this setting: plasma LPV, expressed as a percentage of the GM of LPV/r alone, n = 16.

We go through one compound from article PMC3776002 (International journal of infectious diseases : IJID : …, 2013).

The term Cmax denotes the maximum level reached in the sampled fluid or tissue. Usually AUC stands for the area under the concentration-time curve, a measure of exposure. On to `Cc1cccc(C)c1OCC(=O)N[C@@H](Cc1ccccc1)[C@@H](O)C[C@H](Cc1ccccc1)NC(=O)[C@H](C(C)C)N1CCCNC1=O` [LPV, Lopinavir], for which the “CLF (apparent clearance), arithmetic mean (SD)” value is 4.61 (1.56) l/h (steady state, day 14, LPV/r alone, n = 16) and 4.64 (1.32) l/h (steady state, day 21, LPV/r plus African potato, n = 16). For the setting “human, plasma, oral”, this compound registered a Cmax of 10100 ng/mL. The AUC worked out at 94400 ng·h/mL (human, plasma, oral, arithmetic mean (SD), plasma LPV, steady state, day 14, LPV/r 400/100 mg twice daily alone, n = 16) and 93200 ng·h/mL (human, plasma, oral, arithmetic mean (SD), plasma LPV, steady state, day 21, LPV/r 400/100 mg twice daily plus African potato four capsules once daily for 7 days, n = 16). The concentration at 12 h is, setting by setting: (human, plasma, oral, arithmetic mean (SD), plasma LPV, steady state, day 14, LPV/r alone, n = 16) 4850 ng/mL; (human, plasma, oral, arithmetic mean (SD), plasma LPV, steady state, day 21, LPV/r plus African potato, n = 16) 4900 ng/mL; (human, plasma, oral, geometric mean, plasma LPV, steady state, day 14, LPV/r alone, n = 16) 4130 ng/mL; (human, plasma, oral, geometric mean, plasma LPV, steady state, day 21, LPV/r plus African potato, n = 16) 4380 ng/mL. For the same compound, the “AUCτ, geometric mean” value (plasma LPV, steady state, day 14, LPV/r alone, n = 16) is 90780 ng·h/mL and the “AUCτ, geometric mean” value under setting [1] was found to be 89660 ng·h/mL. For the same compound, the “Cmax, arithmetic mean (SD)” value under setting [1] was 10.18 (2.25) μg/ml. Besides, the “AUCτ, PE (point estimate of the ratio of geometric means of LPV/r plus African potato and LPV/r)” value under setting [2] was 98.77%. For the same compound, under setting [2], the “Cmax, PE (point estimate of the ratio of geometric means of LPV/r plus African potato and LPV/r)” value was 100.90%. Further, under setting [2], the “Ctrough, PE (point estimate of the ratio of geometric means of LPV/r plus African potato and LPV/r)” value is 105.98%.
